From paper PMC12693135, “Ocular Toxicity and Mechanistic Investigation for Berberine and Its Metabolite Berberrubine on Zebrafish” (Molecules, 2025)

Assays:
[1] = test system: human corneal epithelial (HCE-T) cell line; experiment: MTT cytotoxicity assay on HCE-T cells; format: cell-based
Experimental: (§1) The human corneal epithelial cell line HCE-T (Cellosaurus accession: CVCL_1272, RRID: CVCL_1272, RCB: RCB2280) was purchased from Procell Life Science and Technology Co., Ltd. (Wuhan, China). […] were cultured in high-glucose Dulbecco’s Modified Eagle Medium (DMEM), which was purchased from Procell Life Science and Technology Co., Ltd. (Wuhan, China). The high-glucose DMEM was DMEM basic medium supplemented with 15% fetal bovine serum (Procell), 1% penicillin/streptomycin (Procell), 5 μg/mL insulin, and 10 ng/mL human epidermal growth factor (Procell).
(§2) HCE-T cells were seeded in 96-well plates (8 × 10^3 cells/well, 100 μL medium) and cultured overnight at 37 °C, 5% CO2 for adhesion. BBR or its metabolites at various concentrations (BBR and M3 at the concentrations of 31.25, 62.5, 125, 250 and 500 µM, M1 and M4 at the concentrations of 25, 50, 100, 200 and 400 µM) in 0.5% DMSO were added and incubated for 24 h, with 0.5% DMSO in culture medium as the vehicle control. Subsequently, 20 μL MTT (5 mg/mL) was added to each well and the cells were cultured at 37 °C for 4 h. Then, the culture medium was removed, and 150 μL DMSO was added to dissolve formazan crystals and the absorbance at 570 nm was measured on a Synergy H1 multifunctional microplate reader (Biotek, Winooski, VT, USA). The IC50 values of test compounds were calculated by Graphpad Prism 8.5 (GraphPad Software Co., San Diego, CA, USA).

[2] = MTT cytotoxicity assay on HCE-T cells; format: cell-based, human; conditions: human, HCE-T human corneal epithelial cells; HCE-T cells, 24 h incubation
Experimental: as §1, §2

Compound	IC50 [1] [µM]	IC50 at 24 h [2] [µM]
COc1ccc2cc3[n+](cc2c1OC)CCc1cc(O)c(O)cc1-3 [M3, demethyleneberberine]	> 400	–
COc1cc2c(cc1O)CC[n+]1cc3c(OC)c(OC)ccc3cc1-2 [M4, jatrorrhizine]	–	> 400
